From publication PMC12655446, “Colon-Specific Delivery of Probenecid Enhances Therapeutic Activity of the Uricosuric Agent Against Rat Colitis” (Pharmaceutics, 2025)
“Also recorded” adds a separate entry of the source.

Legend:
[1] = system: dextran sulfate sodium-induced colitis; parameters: method as in PMID 40602551; details: mice, oral 100 mg/kg; cited from earlier work
[2] = Distribution coefficient (log D6.8), isotonic phosphate buffer (pH 6.8)/n-octanol; assay type: physicochemical
Method: Distribution coefficients (log D6.8) of PBN, PBN-GA, and PBN-AA were measured using an isotonic phosphate buffer (pH 6.8)/n-octanol system, as described previously.

[3] = system: Px-1; parameters: method as in PMID 18596212; details: cited from earlier work
[4] = Chemical stability in HCl-NaCl buffer (pH 1.2) and isotonic phosphate buffer (pH 6.8); assay type: physicochemical
Method: The chemical stabilities of PBN-GA and PBN-AA were tested in HCl-NaCl buffer (pH 1.2) and isotonic phosphate buffer (pH 6.8). Changes in the concentrations of PBN-GA and PBN-AA were monitored by HPLC.

[5] = Incubation in small intestinal contents of rats; assay type: in vitro ADME, rat; details: 10 h
Method: Male Sprague-Dawley rats (250–260 g) were euthanized with CO2 prior to making a midline abdominal incision. The small intestinal contents were collected and suspended in isotonic phosphate buffer (pH 6.8) to prepare a 20% (w/v) suspension. PBN-GA (2 mM) was dissolved in 3 mL of isotonic phosphate buffer (pH 6.8), were mixed with 3 mL of the small intestinal suspension and incubated at 37 °C. A solution of PBN-AA was created with the same method. At designated time points, 0.5 mL of the reaction mixture was collected and centrifuged at 10,000× g at 4 °C for 10 min, and 0.1 mL of the supernatant was mixed with 0.9 mL of methanol. After vortexing and centrifugation under the same conditions, the final supernatant was filtered through a 0.45 μm membrane, and 20 μL of the filtrate was analyzed for PBN concentration by HPLC.

[6] = system: Caco-2 cell monolayer; assay: Cell permeability assay across Caco-2 cell monolayer; assay type: in vitro ADME; details: 500 μM apical, up to 24 h, apical to basolateral
Method: The cell permeabilities of PBN, PBN-GA, and PBN-AA were evaluated using a Caco-2 cell monolayer model. Caco-2 cells were seeded at a density of 4 × 10^5 cells per insert in Transwell 6-well plates with a pore size of 0.4 μm (SPL Life Sciences, Pocheon, Gyeonggi-do, Republic of Korea). The cells were cultured in Dulbecco’s modified eagle medium (DMEM) supplemented with 10% Fetal bovine serum (FBS) and 1% penicillin/streptomycin until the transepithelial electrical resistance (TEER) measured using an EMD Millipore system (Billerica, MA, USA) reached 2000 Ω·cm^2, indicating an intact monolayer.
For the transport study, the apical (donor) compartment was filled with 2 mL of DMEM without phenol red containing the test compounds (500 μM), and 3 mL of DMEM without phenol red was placed in the basolateral (acceptor) compartment. Samples were collected from the basolateral side at designated time intervals up to 24 h to determine the concentration of the permeated compounds using HPLC. Each experiment was performed in triplicate, and monolayer integrity was confirmed by maintaining TEER values above 2000 Ω·cm^2 before and after the assay.

[7] = PBN concentration in the cecum after oral gavage; assay type: in vivo; details: rat
Method: For cecal distribution studies, rats were orally administered PBN (30.0 mg/kg) or PBN-GA (43.6 mg/kg, equivalent to 30.0 mg/kg of PBN) in 1.0 mL PBS. At 2, 4, and 8 h post-dosing, the cecal contents were harvested and suspended in isotonic phosphate buffer (pH 6.8) to prepare 10% (w/v) homogenates. Quantitative analysis of PBN in the cecal suspensions was performed using HPLC, following the procedure described in Section 2.7.

[8] = system: DNBS-induced rat colitis; assay: Anticolitis effects in DNBS-induced rat colitis; assay type: in vivo
Method: Experimental colitis was induced in rats as previously described. Briefly, male Sprague–Dawley rats underwent to a 24 h fasting period with free access to water. Anesthesia was induced using 3% isoflurane and maintained at 2.5% in 1 L/min oxygen using a Small Animal O2 Single Flow Anesthesia System (LMS, Pyeongtaek, Republic of Korea). Once the animals no longer reacted to external tactile stimulation, a rubber cannula (2 mm outer diameter) was carefully inserted rectally, positioning the tip approximately 8 cm from the anus to target the splenic flexure. A solution of DNBS (48.0 mg) in 0.4 mL of 50% aqueous ethanol was then instilled into the colon via cannula to induce colitis.
Three days after the induction of colonic inflammation, the respective drugs were orally administered to the rats once daily for 6 consecutive days. The experimental scheme and treatment group assignments are shown in Supplementary Material S1. Colonic damage scores (CDS) were determined based on previously established scoring criteria. The scoring system is shown in Supplementary Material S2. Three independent observers blinded to the treatment groups conducted the CDS assessments. Myeloperoxidase (MPO) activity in the distal colon (4 cm) was determined as previously. One unit of MPO activity was defined as 1.0 μmol min^−1 of peroxide degradation at 25 °C.
Western blot analysis was performed on lysates derived from distal colon tissues following a previously established protocol. The detailed procedure is shown in Supplementary Material S3. Western blot images were quantified using Image Lab software (version 5.2 build 14; Bio-Rad, Hercules, CA, USA). Results are presented as the mean of the quantified values for each Western blot in the figures (n = 5).
The levels of inflammatory cytokine-induced neutrophil chemoattractant-3 (CINC-3) in the inflamed distal colon were determined using a CINC-3 enzyme-linked immunosorbent assay (ELISA) kit (R&D Systems, Minneapolis, MN, USA) as previously described.

[9] = oral once daily for 6 days, PBN-GA 21.8 and 43.6 mg/kg

Row | logD [2] | change in concentration of the conjugate (stability) ([4]; buffer pH 1.2, 10 h) | change in concentration of the conjugate (stability) ([4]; buffer pH 6.8, 10 h) | change in concentration of the conjugate (stability) [5] | transport via the Caco-2 cell monolayer compared with PBN [6] | SMILES | further results
1 | – | – | – | – | – | N[C@@H](CCC(=O)O)C(=O)O [GA, glutamic acid] | effect on dextran sulfate sodium-induced colitis [1]: attenuates
2 | 0.3 | – | – | – | – | CCCN(CCC)S(=O)(=O)c1ccc(C(=O)O)cc1 [PBN, Probenecid] | concentration required for significant inhibition of Px-1 [3]: 1 mM
3 | -1.04 | no significant change | no significant change | no significant change | lower transport | CCCN(CCC)S(=O)(=O)c1ccc(C(=O)N[C@@H](CC(=O)O)C(=O)O)cc1 [PBN-AA, aspartic acid-conjugated PBN] | –
4 | -1.22 | no significant change | no significant change | no significant change | lower transport | CCCN(CCC)S(=O)(=O)c1ccc(C(=O)N[C@@H](CCC(=O)O)C(=O)O)cc1 [PBN-GA, glutamic acid-conjugated PBN] | amount of PBN detected in the cecum compared with oral PBN ([7]; oral 43.6 mg/kg (equivalent to 30.0 mg/kg PBN), 2, 4 and 8 h): much greater amount of PBN; amount of PBN in the large intestine relative to oral PBN ([7]; oral, all time points): ten-fold; CINC-3 level in inflamed colon (ELISA) [8, 9]: dose-dependently diminished; COX-2 level in inflamed colon (Western blot) [8, 9]: dose-dependently diminished; iNOS level in inflamed colon (Western blot) [8, 9]: dose-dependently diminished; mucosal recovery (H&E staining of inflamed colon) [8, 9]: more effective than PBN and SSZ; myeloperoxidase (MPO) activity in inflamed distal colon [8, 9]: dose-dependently diminished; colonic tissue damage (colonic damage score, CDS) ([8]; oral once daily for 6 days, PBN-GA 21.8 and 43.6 mg/kg, PBN 30.0 mg/kg, SSZ 50.0 mg/kg): greater with PBN-GA than with PBN; also recorded: more effective than SSZ; suppression of the inflammatory response compared with PBN and SSZ ([8]; regardless of the dose of PBN-GA): more effective in suppressing the inflammatory response than PBN and SSZ
